{"source": "ChEMBL document CHEMBL5247632", "about": "“Current approaches and strategies to identify Hedgehog signaling pathway inhibitors for cancer therapy” (Eur J Med Chem, 2022)", "key": {"Protein smoothened": {"molecular_target": "Protein smoothened (Homo sapiens, UniProt Q99835, D473H)", "sequence (Q99835 28-787 D473H limits assumed)": "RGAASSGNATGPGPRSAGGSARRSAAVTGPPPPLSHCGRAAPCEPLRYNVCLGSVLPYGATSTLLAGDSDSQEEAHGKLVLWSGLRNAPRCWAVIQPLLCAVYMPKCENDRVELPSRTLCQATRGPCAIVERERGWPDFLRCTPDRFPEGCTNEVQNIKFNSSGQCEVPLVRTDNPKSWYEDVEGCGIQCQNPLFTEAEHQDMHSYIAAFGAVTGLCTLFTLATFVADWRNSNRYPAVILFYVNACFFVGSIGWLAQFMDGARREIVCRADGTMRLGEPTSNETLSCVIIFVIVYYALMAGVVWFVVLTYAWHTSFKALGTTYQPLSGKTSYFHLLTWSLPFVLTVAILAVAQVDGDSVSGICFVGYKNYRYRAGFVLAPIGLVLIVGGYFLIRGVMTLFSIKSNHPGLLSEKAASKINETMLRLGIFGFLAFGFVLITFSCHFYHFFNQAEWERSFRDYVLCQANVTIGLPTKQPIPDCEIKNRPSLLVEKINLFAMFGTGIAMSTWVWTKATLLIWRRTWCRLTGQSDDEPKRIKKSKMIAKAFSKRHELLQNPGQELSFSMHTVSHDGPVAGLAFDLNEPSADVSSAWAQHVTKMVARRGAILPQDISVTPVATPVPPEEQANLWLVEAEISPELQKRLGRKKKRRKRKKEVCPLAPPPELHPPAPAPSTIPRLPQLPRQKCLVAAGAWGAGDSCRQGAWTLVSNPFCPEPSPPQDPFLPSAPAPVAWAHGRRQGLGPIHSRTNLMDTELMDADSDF", "assay": "Antagonist activity at SMO D473H mutant (unknown origin) expressed in mouse TM3 cells coexpressing Gli-luc reporter gene assessed as inhibition of Hh-Ag1.5 induced Gli luciferase activity incubated for 48 hrs by luminescence assay", "assay_type": "cell-based"}, "Sonic hedgehog protein": {"molecular_target": "Sonic hedgehog protein (Homo sapiens, UniProt Q15465)", "sequence (Q15465 24-197 limits assumed)": "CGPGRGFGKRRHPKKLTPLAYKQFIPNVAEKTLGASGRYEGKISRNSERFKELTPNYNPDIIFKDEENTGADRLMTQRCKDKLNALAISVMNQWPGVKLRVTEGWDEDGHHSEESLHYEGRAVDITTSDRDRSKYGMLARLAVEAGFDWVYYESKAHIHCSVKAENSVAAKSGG", "assay": "Binding affinity to Shh (unknown origin) assessed as dissociation constant"}, "[1]": {"assay": "Inhibition of hedgehog signalling in Shh-stimulated mouse NIH3T3 cells coexpressing firefly luciferase gene under control of Gli-promoter and renilla gene under control of constitutive promoter assessed as inhibition of Shh-N induced luciferase expression by dual luciferase reporter assay", "assay_type": "cell-based"}, "[2]": {"assay": "Inhibition of hedgehog signalling pathway in mouse Shh Light II cells expressing Gli-luciferase reporter gene assessed as inhibition of SHHN-induced luciferase activity", "assay_type": "cell-based"}, "[3]": {"assay": "Inhibition of hedgehog signalling pathway in mouse NIH3T3 cells by Gli-Bla reporter assay", "assay_type": "cell-based"}}, "note": "Numbered stars: 1 amine (or outer) side, 2 acyl side, 3 side chain; on linkers, the order of the positions; unused ones are H or OH. Bridge positions count the residues as written; N and C are the ends. Peptide text beside a SMILES is read from it. CH2CH2 = C(C[*:2])[*:1]", "data": [{"smiles": "CC1C(=O)N(c2ccc(Cl)cc2)C(=O)N1Cc1ccccc1", "note": "(stereo not given)", "values": [{"measurement": "IC50", "setting": "Protein smoothened", "result": 50, "unit": "nM"}]}, {"smiles": "CSCC[C@@H]1NC(=O)[C@H](C)NC(=O)[C@H](CCC(=O)O)NC(=O)[C@@H](NC(=O)[C@H](Cc2c[nH]c3ccccc23)NC(=O)[C@H](CO)NC(=O)[C@H](CC(C)C)NC(=O)[C@@H](NC(C)=O)[C@@H](C)O)Cc2ccc(cc2)OCCSC[C@@H](C(=O)N[C@H](C(=O)N[C@@H](CC(=O)O)C(=O)O)[C@@H](C)O)NC(=O)[C@H](CCSC)NC(=O)[C@H](CC(=O)O)NC1=O", "note": "(Ac-TLSWYEAMDMCTD-OH; linker 5-11 via CH2CH2)", "values": [{"measurement": "Kd", "setting": "Sonic hedgehog protein", "result": 170, "unit": "nM"}, {"measurement": "IC50", "setting": "[1]", "result": 250, "unit": "nM"}]}, {"smiles": "CCC(C)n1ncn(-c2ccc(N3CCN(c4ccc(OCC5COC(Cn6cncn6)(c6ccc(Cl)cc6Cl)O5)cc4)CC3)cc2)c1=O", "note": "(stereo not given) [ITRACONAZOLE]", "values": [{"measurement": "IC50", "setting": "[2]", "result": 500, "unit": "nM"}]}, {"smiles": "CS(=O)(=O)c1ccc(C(=O)Nc2ccc(Cl)c(-c3ccccn3)c2)c(Cl)c1", "note": "[VISMODEGIB]", "values": [{"measurement": "IC50", "setting": "[3]", "result": 7, "unit": "nM"}]}]}
